The test system of test [1] is Reversed Passive Arthus Reaction (RPAR) in the pleural cavity. Description: Reversed Passive Arthus Reaction (RPAR) in the pleural cavity: cells and fluid. The format is in vivo, male rats. The note with it: dose 25 mpk; for inhibition in vivo at 25 mg/kg: Rattus norvegicus, 4 h; for RPAR-Pleural Cavity Percent Inhibition cells / RPAR-Pleural Cavity Percent Inhibition fluid: Table 3A, formula (IIi). The method, then:
Reversed Passive Arthus Reaction (RPAR) Assay
Groups of 4 male rats were injected in the penile vein with antigen (1 mg BSA in 0.2 mL of saline per rat) and 0.5 hour later injected in the pleural cavity with antibody (1.0 mg antibody protein in the IgG fraction of rabbit anti-BSA in 0.2 mL). […] After 4 hours the animals were killed with CO2, and the pleural cavities were opened and the exudate drained into a graduated conical glass centrifuge tube containing indomethacin (1.8 ug) and nordihydroguaiaretic acid (NDGA) (15 ug) to block ex vivo metabolite synthesis. The volume of the exudate was measured. The cavity was then washed out with saline-EDTA to achieve a final volume of 5.0 mL. The number of cells were determined in a Colulter Counter. The cells were spun-down (1000×g) and the exudate supernatant was added to 4 volumes of 95% ethanol and samples were kept on ice for 30 minutes. After removal of the protein precipitate (2,500×g) the ethanol extract of the exudate was dried under N2 and then stored at -20° C. For radioimmunoassay (RIA) analysis the samples were redissolved in water to a volume of 1 mL per rat. Utilizing internally spiked samples, recovery of TXB2 (tritiated thromboxane B2) and LTE4 (tritiated leukotriene-E4) from exudates was determined to be 84±2% (SEM) and 89±2% (N=4), respectively. Exudate samples were directly assayed in duplicate with the commercial ^3 H-TXB2 RIA kit from New England Nuclear and the ^3 H-LTC4 /D4 /E4 kit from Amersham. The assay was validated using reversed-phase HPLC analysis of LTs in the standard procedure described by M. W. Musch, R. W. Bryant, C. Coscollaela, R. F. Myers and M. I. Siegel, Prostaglandins, Vol. 29, pp 405-430 (1985). Samples of ethanol exudate extract were "spiked" with ^3 H-LTs to follow HPLC purification and recovery.

The target of a further test is T1, 5-lipoxygenase (Homo sapiens, UniProt P09917).
T1 construct: Human polymorphonuclear (PMN) leukocytes (neutrophils) are obtained from normal healthy volunteers; endogenous in cells; host or cells: human polymorphonuclear leukocytes (neutrophils) from blood of healthy volunteers
T1 sequence (P09917 1-674): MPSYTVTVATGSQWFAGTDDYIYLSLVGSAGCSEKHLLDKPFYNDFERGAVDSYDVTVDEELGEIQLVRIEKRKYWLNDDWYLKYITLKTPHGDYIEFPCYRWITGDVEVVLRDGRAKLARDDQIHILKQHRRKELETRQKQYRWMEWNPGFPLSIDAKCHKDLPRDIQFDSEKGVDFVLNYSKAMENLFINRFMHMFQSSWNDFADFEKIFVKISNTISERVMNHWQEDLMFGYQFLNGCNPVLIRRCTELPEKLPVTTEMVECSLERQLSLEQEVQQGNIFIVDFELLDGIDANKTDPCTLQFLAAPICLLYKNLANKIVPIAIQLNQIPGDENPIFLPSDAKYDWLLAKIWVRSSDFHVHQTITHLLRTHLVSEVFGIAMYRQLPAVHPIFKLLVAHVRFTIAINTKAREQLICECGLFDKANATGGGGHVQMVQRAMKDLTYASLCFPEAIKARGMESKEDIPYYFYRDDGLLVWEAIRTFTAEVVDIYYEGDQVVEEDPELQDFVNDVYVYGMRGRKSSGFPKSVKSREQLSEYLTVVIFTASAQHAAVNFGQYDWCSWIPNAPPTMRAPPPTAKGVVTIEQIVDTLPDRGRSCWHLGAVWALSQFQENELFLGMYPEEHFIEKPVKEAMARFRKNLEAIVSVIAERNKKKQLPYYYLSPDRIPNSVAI
Description: 5-Lipoxygenase Assay in human polymorphonuclear (PMN) leukocytes, 5-HETE production. The format is cell-based. The method, then:
Human polymorphonuclear (PMN) leukocytes (neutrophils) are obtained from normal healthy volunteers by venipuncture and collected with heparin anticoagulant. Neutrophils are isolated by Dextran/Ficol sedimentation as described (Billah et al, J. Biol. Chem. 260, 6899-6906 (1985)). In brief, 30 ml of blood is mixed with 5 ml of dextran (Sigma) solution and kept at 37° C. for 30 min. The upper white cellrich layer is removed and 10 ml is layered on 9 ml of Ficol-Paque solution (Pharmacia) and centrifuged at 280×g for 10 min. at 5° C. The supernatant is removed and the neutrophil pellet is resuspended in HEPES buffer containing 25 mM N-2-hydroxyethylpiperazine-N^1 -2 ethanesulfonic acid(HEPES), 125 mM NaCl, 2.5 mM KCL, 0.7 mM MgCl2, 0.5 mM and 10 mM glucose at pH 7.4. The red cells in the suspension are lysed by hypotonic shock. The neutrophils are washed by centrifugation in HEPES buffer two times and finally resuspended at a concentration of 20×10^6 cells/ml in the presence of 1 mM CaCl2.
Neutrophils (0.2 ml of suspension) are preincubated with dimethylsulfoxide (DMSO) vehicle with or without test compound (1 ul) for 4 minutes then incubated for 5 minutes with ^14 C-arachidonic acid (Amersham, 59 Ci/mole) at a 9 uM final concentration, and the calcium ionophore A23187 (Calbiochem) at a 1 uM final concentration. These stimulants are added in 10 ul of water:ethanol (9:1). The reaction is stopped by addition of methanol (0.4 ml), and cellular debris is removed by centrifugation. Aliquots (100 ul) of the incubations are run on a Waters two pump high performance liquid chromatography (HPLC) system fitted with a DuPont Zorbax ODS, 5 u, 4×80 […] Reliance Cartridge column and C18 "Guard Pak". The column is initially eluted at 2 ml/min with 80 percent of the mixture water:methanol:acetic acid (46:54:0.08) containing 1 mM EDTA adjusted to pH 6.0 with ammonium hydroxide (Pump A) and 20% methanol (Pump B). At 10 minutes, a linear gradient is established. to reach 100 percent methanol (Pump B) at 27 minutes. Between 27 and 28 minutes, methanol is exchanged for the initial eluting solvent and by 35 minutes the column is reequilibrated for the next sample. The effluent is analyzed by a continuous flow radioactivity monitor (model ROMONA-D) interfaced with a Hewlett Packard Lab Automation System for quantitation of radioactive products. This includes the major 5-lipoxygenase product, 5-hydroxyeicosatetraenoic acid (5-HETE) which elutes at 20 minutes. The results with and without test compound are used to calculate percent inhibition of 5-HETE production.

[2] abbreviates: read-out: RPAR-Pleural Cavity % Inhibition cells.
[3] abbreviates: read-out: RPAR-Pleural Cavity % Inhibition fluid.

Where two headings read alike, the source gives them in different places.

`CC1(C)C(=S)N(c2ccccc2)c2ncccc21` [Compound 7, 1,3-dihydro-3,3-dimethyl-1-phenyl-2H-pyrrolo[2,3-b]pyridin-2-thione]: the inhibition in vivo at 25 mg/kg was 35% in test [1] (setting [2]) and 33% in test [1] (setting [3]). The matching figures for `CSc1ccc(N2C(=O)C(C)(C)c3cccnc32)cc1` [Compound 10, 1,3-dihydro-3,3-dimethyl-1-[4-(methylthio)phenyl]-2H-pyrrolo[2,3-b]pyridin-2-one]: 29% and 37%. A word on the inhibition: it is the relative decrease from the control value, in per cent. Molecule `O=C1C(SCCO)c2cccnc2N1c1ccccc1` (centres unmarked) [Compound 25, 1,3-dihydro-3-(2-hydroxyethylthio)-1-phenyl-2H-pyrrolo[2,3-b]pyridin-2-one] had an inhibition at 15 µM against 5-lipoxygenase of 8%. Consider `O=C(O)Cc1cccnc1Nc1ccc(Cl)cc1` [Compound 48, sodium 2-(4-chlorophenylamino)-3-pyridine acetate], for which, in test [1], the “RPAR-Pleural Cavity Percent Inhibition cells” value was determined as 0% and the “RPAR-Pleural Cavity Percent Inhibition fluid” value worked out at 0%. On 5-lipoxygenase, `CN1C(=O)C([S+]([O-])c2ccccc2)c2cccnc21` (centres unmarked) [Compound 24, 1,3-dihydro-1-methyl-3-(phenylsulfinyl)-2H-pyrrolo[2,3-b]pyridin-2-one] had an inhibition at 15 µM of 24%. On the same count and under the same terms, with `CSC1(C)C(=O)N(c2ccccc2)c2ncccc21` (centres unmarked) [Compound 32, 1,3-dihydro-3-methyl-3-(methylthio)-1-phenyl--2H-pyrrolo[2,3-b]pyridin-2-one] the figure was 21%. Take `CC1(F)C(=O)N(c2ccccc2)c2ncccc21` (centres unmarked) [Compound 4, 1,3-dihydro-3-fluoro-3-methyl-1-phenyl-2H-pyrrolo[2,3-b]pyridin-2-one]: the inhibition in vivo at 25 mg/kg in test [1] (setting [2]) is 50%; in test [1] (setting [3]), 35%. `O=C(O)Cc1cccnc1Nc1ccc(Cl)c(Cl)c1` [Compound 47, sodium 2-(3,4-dichlorophenylamino)-3-pyridine acetate]: in test [1], the “RPAR-Pleural Cavity Percent Inhibition cells” value was found to be 16% and the “RPAR-Pleural Cavity Percent Inhibition fluid” value came out at 19%. The molecule `O=C1C(Sc2ccccc2)c2cccnc2N1c1cccc(C(F)(F)F)c1` (centres unmarked) [Compound 12, 1,3-dihydro-3-(phenylthio)-1-(3-trifluoromethylphenyl)-2H-pyrrolo[2,3-b]pyridin-2-one] yielded an inhibition at 15 µM on 5-lipoxygenase of 79%. At 5-lipoxygenase, `CC(=O)C1(SCCO)C(=O)N(c2ccccc2)c2ncccc21` (centres unmarked) [Compound 29] returned an inhibition at 15 µM of 56%. On 5-lipoxygenase, `O=C1C(Sc2ccccc2)c2cccnc2N1Cc1ccccc1` (centres unmarked) [Compound 27, 1,3-dihydro-1-(phenylmethyl)-3-(phenylthio)-2H-pyrrolo[2,3-b]pyridin-2-one] yielded an inhibition at 15 µM of 16%.

On to `CC(=O)OCCSC1C(=O)N(c2ccccc2)c2ncccc21` (centres unmarked) [Compound 30, 1,3-dihydro-3-[2-(acetoxy)-ethylthio]-1-phenyl-2H-pyrrolo[2,3-b]pyridin-2-one], for which the inhibition at 15 µM against 5-lipoxygenase stood at 26%. For the molecule `CC(C)c1ccc(N2C(=O)C(Sc3ccccc3)c3cccnc32)cc1` (centres unmarked) [Compound 15, 1,3-dihydro-1-(4-(1-methylethyl)-phenyl)-3-(phenylthio)-2H-pyrrolo[2,3-b]pyridin-2-one], testing at 50 µM against 5-lipoxygenase (50 μM) gave an inhibition of 84%. As to `CN1C(=O)C(S(=O)(=O)c2ccccc2)c2cccnc21` (centres unmarked) [Compound 31, 1,3-dihydro-1-methyl-3-(phenylsulfonyl)-2H-pyrrolo[2,3-b]pyridin-2-one], the inhibition at 15 µM against 5-lipoxygenase is 10%. Molecule `COc1ccc(SC2C(=O)N(c3ccccc3)c3ncccc32)cc1` (centres unmarked) [Compound 21, 1,3-dihydro-3-(4-methoxyphenylthio)-1-phenyl-2H-pyrrolo[2,3-b]pyridin-2-one] came in with an inhibition at 15 µM against 5-lipoxygenase of 61%.

On to `O=C(O)Cc1cccnc1Nc1cccc(C(F)(F)F)c1` [Compound 45, 2-(3-trifluoromethylphenylamino)-3-pyridine acetic acid], for which, in test [1], the “RPAR-Pleural Cavity Percent Inhibition cells” value stood at 22% and the “RPAR-Pleural Cavity Percent Inhibition fluid” value came to 14%. The matching figures for `CC(C(=O)O)c1cccnc1Nc1ccc(Cl)cc1` (stereo not drawn) [Compound 49, sodium 2-(4-chlorophenylamino)-α-methyl-3-pyridine acetate]: 67% and 54%.

`CC(C)(C(=O)O)c1cccnc1Nc1ccc(Cl)cc1` [Compound 46, sodium 2-(4-chlorophenylamino)-α,α-dimethyl-3-pyridine acetate]: in test [1], the “RPAR-Pleural Cavity Percent Inhibition cells” value is 62% and the “RPAR-Pleural Cavity Percent Inhibition fluid” value worked out at 71%.

(Values after patent US5182289A, “Heterobicyclic compounds having antiinflammatory activity” (Schering Corporation, priority 1990, dated 1993).)
